Measurements: patent publication US7192925B2, “Scorpion peptide as hypotensive agent” (Universidade Federal de Minas Gerais, priority 2002, dated 2007)
“Also recorded” adds a separate entry of the source.

Tests used:
[1] = tested on: hypotensive effect of bradykinin (average arterial pressure) in Wistar rats; test: Bradykinin potentiation in vivo: hypotensive effect of bradykinin re-evaluated after TsHpt-I injection; design: species or system rat
Description: (§1) Wistar rats, weighting 300±20 g were used, waked or anesthetized, to assess the hypotensive properties of peptides. Bradykinin (Bachem, Co) and TsHpt-I were dissolved in sterile isotonic saline (0.9% NaCl) immediately before use.
(§2) “In vivo” experiments using waked animals: a day before the experiment, rats were anesthetized with ether and a polyethylene catheter (PE-10 connected to PE-50) was inserted into the abdominal aorta through the femoral artery for blood pressure measurements. For intravenous injections, a polyethylene cannula was implanted into the femoral vein. Arterial blood pressure and heart rate were monitored by a solid-state strain-gauge transducer. All variables were recorded continuously on a computer through a data acquisition system, Biopac®, and processed by the Acknowledge® software.
(§3) Bradykinin, 1 μg or 2 μg, was injected and the response measured as variation on average arterial pressure. Hypotensive effect of TsHpt-I (10 μg) alone was measured after Bradykinin. The hypotensive effect of bradykinin (1 μg) was then re-evaluated after 5 and 10 minutes following the injection of TsHpt-I.
“In vivo” experiments using anesthetized rats: the arterial blood pressure and heart rate were monitored continuously after insertion of catheters as described above. Rats were previously anesthetized with urethane, 1.2 mg/kg, (via i.p.).
The hypotensive effect of intravenous injections of bradykinin, 1 μg or 2 μg was measured, followed by the measurement of hypotensive effect of TsHpt-I (10 μg). The hypotensive effect of the bradykinin (1 μg) was then re-evaluated after 1, 5, 10, 15, 20 and 30 minutes.
The potentiating unit—i.e., the amount of peptide that is able to double the activity of a single dose of bradykinin—of TsHpt-I was 10 μg. At this dose TsHpt-I was able to double the activity of a single dose of bradykinin for almost 20 minutes in anesthetized animals.

[2] = tested on: arterial blood pressure of Wistar rats; test: Hypotensive activity of the peptide in biological assays on rats; assay type: in vivo, rat; settings: native and synthetic peptide
Description: as §1, §2, §3
“In vivo” experiments using anesthetized rats: the arterial blood pressure and heart rate were monitored continuously after insertion of catheters as described above. Rats were previously anesthetized with urethane, […], (via i.p.). […]

TsHpt-I (AEIDFSGIPEDIIKQIKETNAKPPA; listed as Tityus serrulatus)
time for which TsHpt-I was able to double the activity of a single dose of bradykinin ([1]; TsHpt-I 10 μg, anesthetized animals (urethane)): ~20 min | potentiation of bradykinin effects (in words) ([1]; rat, in vivo): able to potentiate bradykinin effects in a strong and long-lasting manner | potentiating unit (amount of peptide that is able to double the activity of a single dose of bradykinin) ([1]; waked and anesthetized rats, intravenous injection, bradykinin 1 μg): 10 µg | hypotensive activity / ability to decrease blood pressure (in words) [2]: strong ability to decrease blood pressure; also recorded: same hypotensive activity as the native molecule
